In US12544350B2, “Combinatorial antitumor treatment methods and related compositions, kits, and systems” (Klotho Therapeutics, Inc., priority 2021, dated 2026):

System: LLC animals
Test: Cancer treatment: survival and anti-tumor efficacy in LLC animals (Example 13)
Assay type: in vivo
Settings: day 15; Compound 22 (50 mg/kg), cisplatin (10 mg/kg)
Excerpt: Compositions, system, and/or kits of the present disclosure can be effective at treating cancer and/or tumors. For example, a treatment protocol comprising illustrative compound 22 and cisplatin, co-administered is effective as an anti-tumor treatment, in addition to compound 22 preventing/attenuating kidney damage (caused by the chemotherapeutic nephrotoxin), restoring kidney function, and/or increasing patient survival during chemotherapy. FIG. 19 illustrates the survival efficacy of Compound 22 (50 mg/kg), cisplatin (10 mg/kg), and the combination of Compound 22+cisplatin in LLC animals. The co-administration of compound 22 (an illustrative PTBA prodrug) increased the probability of survival in LLC animals at day 15 from ˜75% (cisplatin alone) to ˜95% (Compound 22+cisplatin co-administration). FIG. 20 illustrates the anti-tumor efficacy of Compound 22, cisplatin, and the combination of Compound 22+cisplatin in LLC animals. cisplatin was administered to LLC animals at day 5 and day 14 of a 21 day study. Compound 22 was co-administered (once daily) 48 hours after each dose of cisplatin, and for 6 additional, consecutive days thereafter.

## N.N.[Cl][Pt][Cl] [cisplatin]
  probability of survival in LLC animals: ~75%
